According to US20250361268A1, “NOVEL ANTI-INFLAMMATORY PEPTIDE AND USE THEREOF” (NOVACELL TECHNOLOGY INC., priority 2022, published 2025):
Peptide text beside a SMILES is read from it.

Key:
FPR1 = target: T1, FPR1 (Homo sapiens, UniProt P21462); test: Change in calcium activity by peptide, FPR1 activation effect; type: cell-based; details: calcium activity (Fura-2), graded per Table 3, read-out: EC50 for [Ca^2+] FPR1
T1 sequence (P21462 1-350): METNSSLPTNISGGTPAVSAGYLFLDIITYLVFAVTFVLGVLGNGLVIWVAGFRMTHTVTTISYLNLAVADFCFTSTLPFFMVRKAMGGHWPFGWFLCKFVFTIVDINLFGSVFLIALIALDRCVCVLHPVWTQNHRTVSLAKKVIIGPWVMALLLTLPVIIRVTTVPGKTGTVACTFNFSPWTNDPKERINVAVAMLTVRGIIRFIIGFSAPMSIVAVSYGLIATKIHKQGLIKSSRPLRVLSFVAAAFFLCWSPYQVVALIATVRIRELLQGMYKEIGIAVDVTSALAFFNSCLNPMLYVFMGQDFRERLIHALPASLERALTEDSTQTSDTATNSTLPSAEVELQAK
Outline: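 Calcium flux induced by peptide addition was monitored on a FlexStation 3 plate reader. Before this, cells seeded a day earlier (3×10^5/well) took up the Fura-2 dye for 1 h at 37 °C plus 30 min dark at room temperature.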

FPR2 = target: T2, FPR2 (Homo sapiens, UniProt P25090); test: Change in calcium activity by peptide (Fura-2) in RBL cells overexpressing FPR2; type: cell-based; details: calcium activity (Fura-2), graded per Table 3, read-out: EC50 for [Ca^2+] FPR2
T2 construct: expressed in transfected cells; host or cells: RBL cells (RBL-FPR2)
T2 sequence (P25090 1-351): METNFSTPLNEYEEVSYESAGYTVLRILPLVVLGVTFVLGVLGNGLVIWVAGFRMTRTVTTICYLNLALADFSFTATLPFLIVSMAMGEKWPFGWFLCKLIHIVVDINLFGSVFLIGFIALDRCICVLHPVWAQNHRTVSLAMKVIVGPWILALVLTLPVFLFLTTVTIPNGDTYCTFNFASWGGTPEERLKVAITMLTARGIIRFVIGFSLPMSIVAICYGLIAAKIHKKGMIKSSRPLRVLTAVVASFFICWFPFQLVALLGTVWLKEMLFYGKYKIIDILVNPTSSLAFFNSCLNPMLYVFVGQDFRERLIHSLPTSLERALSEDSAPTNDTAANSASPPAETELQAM
Outline: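 Peptide-induced intracellular calcium change measured by Fura-2 fluorescence on a plate reader. Cells: RBL line overexpressing FPR2, dye-loaded 1 h at 37 °C then 30 min at RT in dark; peptides from 0.5 mM water/50% DMSO stocks, diluted in HBSS with 20 mM HEPES.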

| Compound | EC50 (FPR1) [nM] | EC50 (FPR2) [nM] |
| --- | --- | --- |
| CCCC(=O)N[C@@H](CCCCN)C(=O)N[C@@H](CCSC)C(=O)N[C@@H](CCCCN)C(=O)N[C@@H](Cc1ccc(O)cc1)C(=O)N[C@@H](CCCCN)C(=O)N1CCC[C@H]1C(=O)N[C@H](CCSC)C(N)=O [Peptide 68] (HELM PEPTIDE1{[CCCC(=O)[*:2]].K.M.K.Y.K.P.[dM].[am]}$$$$V2.0) | > 10000 | < 10 |
| CSCC[C@@H](NC(=O)[C@H](Cc1ccc(O)cc1)NC(=O)[C@@H](NC(=O)[C@H](Cc1ccc(O)cc1)NC(=O)[C@H](CCCNC(=N)N)NC(=O)[C@H](Cc1c[nH]c2ccccc12)NC(=O)[C@@H](N)CCCNC(=N)N)[C@@H](C)O)C(N)=O [Peptide 157] (HELM PEPTIDE1{R.W.R.Y.T.Y.[dM].[am]}$$$$V2.0) | > 10000 | < 10 |
| CSCC[C@@H](NC(=O)[C@@H](NC(=O)[C@H](CCCCN)NC(=O)[C@H](Cc1ccc(O)cc1)NC(=O)[C@H](CCCCN)NC(=O)[C@H](Cc1c[nH]c2ccccc12)NC(=O)[C@H](CCCCN)NC(C)=O)C(C)C)C(N)=O [Peptide 4] (HELM PEPTIDE1{[ac].K.W.K.Y.K.V.[dM].[am]}$$$$V2.0) | > 10000 | < 10 |
| CSCC[C@@H](NC(=O)[C@@H](NC(=O)[C@H](CC(C)C)NC(=O)[C@H](Cc1ccc(O)cc1)NC(=O)[C@H](CCCNC(=N)N)NC(=O)[C@H](Cc1c[nH]c2ccccc12)NC(=O)[C@@H](N)CCCNC(=N)N)C(C)C)C(N)=O [Peptide 158] (HELM PEPTIDE1{R.W.R.Y.L.V.[dM].[am]}$$$$V2.0) | 1000 to 10000 | 11 to 100 |
| CSCC[C@H](NC(=O)[C@@H](N)Cc1c[nH]cn1)C(=O)N[C@@H](CCCNC(=N)N)C(=O)N[C@@H](Cc1ccc(O)cc1)C(=O)N[C@@H](CCCCN)C(=O)N1CCC[C@H]1C(=O)N[C@H](CCSC)C(N)=O [Peptide 58] (HELM PEPTIDE1{H.M.R.Y.K.P.[dM].[am]}$$$$V2.0) | > 10000 | < 10 |
| CSCC[C@@H](NC(=O)[C@H](Cc1ccc(O)cc1)NC(=O)[C@H](Cc1ccc(O)cc1)NC(=O)[C@H](Cc1ccc(O)cc1)NC(=O)[C@H](CCCNC(=N)N)NC(=O)[C@H](Cc1c[nH]c2ccccc12)NC(C)=O)C(N)=O [Peptide 124] (HELM PEPTIDE1{[ac].W.R.Y.Y.Y.[dM].[am]}$$$$V2.0) | 1000 to 10000 | 11 to 100 |
| CC[C@H](C)[C@H](N)C(=O)N[C@@H](CCCCN)C(=O)N[C@@H](Cc1ccccc1)C(=O)N[C@@H](CCCCN)C(=O)N[C@H](C(=O)N[C@H](CCSC)C(N)=O)C(C)C [Peptide 132] (HELM PEPTIDE1{I.K.F.K.V.[dM].[am]}$$$$V2.0) | > 10000 | 11 to 100 |
| CSCC[C@H](NC(=O)[C@@H](N)Cc1c[nH]cn1)C(=O)N[C@@H](CCCNC(=N)N)C(=O)N[C@@H](Cc1ccc(O)cc1)C(=O)N[C@@H](CCCNC(=N)N)C(=O)N[C@H](C(=O)N[C@H](CCSC)C(N)=O)C(C)C [Peptide 31] (HELM PEPTIDE1{H.M.R.Y.R.V.[dM].[am]}$$$$V2.0) | 1000 to 10000 | < 10 |
| CSCC[C@@H](NC(=O)[C@H](Cc1ccc(O)cc1)NC(=O)[C@H](CC(N)=O)NC(=O)[C@H](Cc1ccc(O)cc1)NC(=O)[C@H](CCCNC(=N)N)NC(=O)[C@H](Cc1c[nH]c2ccccc12)NC(=O)[C@@H](N)CCCNC(=N)N)C(N)=O [Peptide 155] (HELM PEPTIDE1{R.W.R.Y.N.Y.[dM].[am]}$$$$V2.0) | > 10000 | 11 to 100 |
| CCCC(=O)N[C@H](C(=O)N[C@@H](CCCCN)C(=O)N[C@@H](Cc1ccc(O)cc1)C(=O)N[C@@H](CCCCN)C(=O)N1CCC[C@H]1C(=O)N[C@H](CCSC)C(N)=O)[C@@H](C)CC [Peptide 144] (HELM PEPTIDE1{[CCCC(=O)[*:2]].I.K.Y.K.P.[dM].[am]}$$$$V2.0) | > 10000 | < 10 |
